The values that follow come from PubChem BioAssay AID977621 (Broad Institute, 2014).

This assay deals with E. coli wild-type GFP strain growth, fluorescence, 24 h. In words: growth inhibition of wild-type GFP E. coli, dose response, H69 mutant RFP, cherry-pick (AID 977621).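 Further: wild-type GFP and H69 mutant RFP strains grown together 50/50 in each well.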
The mark [1] stands for this setting: E. coli mixed culture, 24 h, measured here: total growth OD600, test 2.

Each structure is given as a SMILES string. Records with an inconclusive call do not appear. Active and inactive are the calls of the source.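 How the source made its calls: active means Wild-type ribosome reporter drop at least double the humanized mutant ribosome reporter drop, growth loss under a set limit; inconclusive means no clear call, values can overlap the other calls; inactive means the rest.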 Some results are limits rather than exact numbers.

For the compound `CC(=O)NCCOc1nc(N2CCCCC2)nc(N2CCCCC2)n1`, under setting [1], the AC50 (usually the midpoint of the concentration-response curve, whichever way the signal moves) is over 100 µM.

`COc1cccc(NC(=O)C2CCC(CNS(=O)(=O)c3cccc4cccnc34)CC2)c1` (stereo unspecified): the AC50 was > 100 µM (inactive).

Turning to `O=C(O)CC1(CC(=O)NCc2ccc(-c3cccs3)cc2)CCCCC1`, the AC50 is > 100 µM (inactive).

`O=S1(=O)N[C@H](Cc2ccccc2)COc2cc(N3CCSCC3)ccc21` gave a half-maximal activity concentration (AC50) under setting [1] of over 100 µM.

For the compound `COc1cccc(-c2ccc(SCc3ccccn3)nn2)c1`, the AC50 is > 100 µM (inactive). This compound yielded a half-maximal activity concentration (AC50) under setting [1] of 48.2 µM.

Take `O=C(c1ccc(N2CCCCC2)c([N+](=O)[O-])c1)N1CCN(c2ccccn2)CC1`: the AC50 is > 100 µM (inactive). Moreover, the AC50 under setting [1] is over 100 µM.

With `COc1cc(NC(=O)CSCc2ccc(Cl)cc2Cl)c(C(=O)O)cc1OC`, the AC50 is > 100 µM (inactive). For the same compound, the AC50 under setting [1] was over 100 µM.

`Cc1cccc(-c2ccc([C@H]3[C@@H](CO)N4CCCCN(S(=O)(=O)c5ccccc5C)C[C@H]34)cc2)c1` registered a half-maximal activity concentration (AC50) under setting [1] of 27.2 µM.

For the compound `Cc1ccc(CNC(=O)c2ccc(Br)o2)cc1`, the AC50 is > 100 µM (inactive).

As for `COC(=O)C(Cc1csc2ccc(Cl)cc12)NC(=O)c1ccc(Cl)cc1` (stereo unspecified), the AC50 was > 100 µM (inactive). Under setting [1], this compound yielded an AC50 of 18.4 µM.

With `O=C(Cc1cccnc1)N1CC(=O)N2[C@H](C1)[C@@H](c1ccc(C3=CCCCC3)cc1)[C@@H]2CO`, the AC50 is > 100 µM (inactive). The compound also had a half-maximal activity concentration (AC50) under setting [1] of over 100 µM.

Turning to `O=C(NCc1cccnc1)c1ccc(COc2ccccc2Br)o1`, the AC50 was > 100 µM (inactive). Also, the AC50 under setting [1] was 46.2 µM.

In the case of `Cc1ccc(NC(=O)C2CCCN(c3ncnc4c3nc3n4CCCCC3)C2)cc1Cl` (stereo unspecified), the AC50 under setting [1] was over 100 µM.

In the case of `O=C1c2ccccc2NC(c2cccc(F)c2)N1Cc1ccco1` (stereo unspecified), under setting [1], the AC50 was found to be 9.09 µM.

For the compound `CCCCCCCNC(=O)c1ccc(N2CCC3(CC2)OCCO3)c([N+](=O)[O-])c1`, the AC50 is > 100 µM (inactive). Further, the AC50 under setting [1] is 35.4 µM.

For the compound `O=S(=O)(c1ccccc1)N1CC[C@@H]2[C@H](CO)Nc3ccc(Br)cc3[C@@H]21`, the AC50 under setting [1] was 43.4 µM.

For `CCOC(=O)c1c(CS(=O)(=O)c2ccccc2)n(C)c2cc(Br)c(O)cc12`, the AC50 is > 100 µM (inactive). The same compound came in with a concentration at half-maximal activity (AC50) under setting [1] of over 100 µM.

Consider `COc1cc(SC)ccc1C(=O)N1CCN(c2ccccc2F)CC1`, for which the AC50 is > 100 µM (inactive).

On to `O=C(COc1cccc2c1CCN(Cc1ccccc1F)C2=O)N1CCCCC1`, for which the AC50 was > 100 µM (inactive).

`CCOc1ccc(S(=O)(=O)Nc2ccc(S(=O)(=O)N3CCCC3)cc2)cc1`: the AC50 is > 100 µM (inactive).

`O=C(NCCCCc1ccccc1)c1cccc(NC(=O)C2CCCCC2)c1`: the AC50 was > 100 µM (inactive). The compound further came in with a concentration at half-maximal activity (AC50) under setting [1] of 46.8 µM.

Regarding `COc1ccccc1N(C)S(=O)(=O)c1ccc(C(=O)NC(C)c2ccccc2)cc1` (stereo unspecified), the AC50 is > 100 µM (inactive).

Take `CC(C)(CC(=O)O)CC(=O)NCc1c(Cl)cccc1Sc1ccc(Cl)cc1`: the AC50 is > 100 µM (inactive).

In turn, `CC(C)CN(C(=O)c1cc([N+](=O)[O-])cc([N+](=O)[O-])c1)C1CCS(=O)(=O)C1` (stereo unspecified) registered a half-maximal activity concentration (AC50) under setting [1] of over 100 µM.

For the compound `Cc1sc2ncnc(N3CCCC(C)C3)c2c1C` (stereo unspecified), the AC50 is > 100 µM (inactive).

With `C[C@@H]1CN([C@H](C)CO)C(=O)c2cccc(NC(=O)c3ccncc3)c2O[C@@H]1CN(C)S(=O)(=O)c1ccc(Cl)cc1`, the AC50 is > 100 µM (inactive). Further, under setting [1], the AC50 is over 100 µM.

Turning to `O=C(c1ccc2c(c1)CCN2S(=O)(=O)c1ccccc1)N1CCN(c2ccccc2)CC1`, the AC50 is > 100 µM (inactive). The concentration at half-maximal activity (AC50) under setting [1] was over 100 µM.

In turn, `COc1cccc(NC(=O)COC(=O)Cc2ccc(Cl)cc2)c1` showed an AC50 under setting [1] of over 100 µM.

Regarding `O=C(c1cc2cc(F)ccc2[nH]1)N1CCN(Cc2ccc3c(c2)OCO3)CC1`, the AC50 is > 100 µM (inactive). The compound also came in with a half-maximal activity concentration (AC50) under setting [1] of 24.5 µM.
